This note sets out measurements from US12441691B2 (Cytokinetics, Inc., priority 2020, dated 2025).

This assay concerns rabbit skeletal myofibrils (fast skeletal myofibrils). Description: Activation of fast skeletal myofibrils (PUMA assay, AC1.4). The class given is biochemical. The note with it: calcium at pCa25, AC1.4 = concentration at which the compound increased the enzymatic activity. The procedure, abridged:
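Detergent-washed rabbit psoas myofibrils (~90% fast fibers), calcium set to give 25% of maximal rate (pCa25). ATPase followed by pyruvate kinase/lactate dehydrogenase-coupled NADH oxidation, absorbance at 340 nm. PM12 buffer: 12 mM PIPES, 2 mM MgCl2, 1 mM DTT, pH 6.8.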
With `CC[C@H](C)[C@H]1C(=O)Nc2ccccc2CN1C(=O)N[C@@H]1CCNC1` [Compound 307, (S)-3-((S)-sec-butyl)-2-oxo-N-((R)-pyrrolidin-3-yl)-1,2,3,5-tetrahydro-4H-benzo[e][1,4]diazepine-4-carboxamide], the AC1.4 amounted to 0.52 µM. Then `CC[C@H](C)[C@H]1C(=O)Nc2ccccc2CN1C(=O)N[C@H]1CCNC1` [Compound 308, (S)-3-((S)-sec-butyl)-2-oxo-N-((S)-pyrrolidin-3-yl)-1,2,3,5-tetrahydro-4H-benzo[e][1,4]diazepine-4-carboxamide], with 0.32 µM; and `COCCN1Cc2ccccc2NC(=O)[C@@H]1C1CCCCCC1` [Compound 309, (S)-3-cycloheptyl-4-(2-methoxyethyl)-1,3,4,5-tetrahydro-2H-benzo[e][1,4]diazepin-2-one], with 0.59 µM.

In the case of `CC[C@H](C)[C@H]1C(=O)Nc2ccccc2CN1CCOC` [Compound 310, (S)-3-((S)-sec-butyl)-4-(2-methoxyethyl)-1,3,4,5-tetrahydro-2H-benzo[e][1,4]diazepin-2-one], the AC1.4 worked out at 4.17 µM. Consider `CC[C@H](C)[C@H]1C(=O)Nc2ccccc2CN1CC(=O)NC` [Compound 311, 2-((S)-3-((S)-sec-butyl)-2-oxo-1,2,3,4-tetrahydro-4H-benzo[e][1,4]diazepin-4-yl)-N-methylacetamide], for which the AC1.4 amounted to 2.60 µM. Then `CC[C@H](C)[C@H]1C(=O)Nc2ccccc2CN1CCC(N)=O` [Compound 312, 3-((S)-3-((S)-sec-butyl)-2-oxo-1,2,3,5-tetrahydro-4H-benzo[e][1,4]diazepin-4-yl)propanamide], with 1.22 µM; and `CC[C@H](C)[C@H]1C(=O)Nc2ccccc2CN1CCC(=O)N(C)C` [Compound 313, 3-((S)-3-((S)-sec-butyl)-2-oxo-1,2,3,5-tetrahydro-4H-benzo[e][1,4]diazepin-4-yl)-N,N-dimethylpropanamide], with 1.22 µM; and `CC[C@H](C)[C@H]1C(=O)Nc2ccccc2CN1CCC(=O)NC` [Compound 314, 3-((S)-3-((S)-sec-butyl)-2-oxo-1,2,3,5-tetrahydro-4H-benzo[e][1,4]diazepin-4-yl)-N-methylpropanamide], with 0.72 µM. To `CC[C@H](C)[C@H]1C(=O)Nc2ccccc2CN1CC1CCCC1` [Compound 315, (S)-3-((S)-sec-butyl)-4-(cyclopentylmethyl)-1,3,4,5-tetrahydro-2H-benzo[e][1,4]diazepin-2-one] belongs 0.65 µM; to `CC[C@H](C)[C@H]1C(=O)Nc2ccccc2CN1CC#N` [Compound 316, 2-((S)-3-((S)-sec-butyl)-2-oxo-1,2,3,5-tetrahydro-4H-benzo[e][1,4]diazepin-4-yl)acetonitrile], 1.07 µM; to `CC[C@H](C)[C@H]1C(=O)Nc2ccccc2C(CO)N1C(N)=O` (stereo partly drawn) [Compound 317, (3S)-3-((S)-sec-butyl)-5-(hydroxymethyl)-2-oxo-1,2,3,5-tetrahydro-4H-benzo[e][1,4]diazepine-4-carboxamide], 1.30 µM.

On to `CC[C@H](C)[C@H]1C(=O)Nc2ccccc2C2COC(=O)N21` (stereo partly drawn) [Compound 318, (5S)-5-((S)-sec-Butyl)-7,11b-dihydro-1H,3H-benzo[f]oxazolo[3,4-d][1,4]diazepine-3,6(5H)-dione], for which the AC1.4 was found to be 0.19 µM. In the case of `CC[C@H](C)[C@H]1C(=O)Nc2ccccc2[C@@H](C)N1C(=O)c1cnn(C)c1` [Compound 319, (3S,5R)-3-((S)-sec-butyl)-5-methyl-4-(1-methyl-1H-pyrazole-4-carbonyl)-1,3,4,5-tetrahydro-2H-benzo[e][1,4]diazepin-2-one], the AC1.4 turned out to be 0.80 µM. Then `CC[C@H](C)[C@H]1C(=O)Nc2ccccc2[C@@H](C)N1C(N)=O` [Compound 320, (3S,5R)-3-((S)-sec-butyl)-5-methyl-2-oxo-1,2,3,5-tetrahydro-4H-benzo[e][1,4]diazepine-4-carboxamide], with 1.25 µM; and `CC(C)[C@H]1C(=O)Nc2ccccc2CN1C(=O)c1ccn(C)n1` [Compound 322, (S)-3-isopropyl-4-(1-methyl-1H-pyrazole-3-carbonyl)-1,3,4,5-tetrahydro-2H-benzo[e][1,4]diazepin-2-one], with 1.15 µM. Then `CC(C)[C@H]1C(=O)Nc2ccccc2CN1c1nccs1` [Compound 323, (S)-3-isopropyl-4-(thiazol-2-yl)-1,3,4,5-tetrahydro-2H-benzo[e][1,4]diazepin-2-one], with 0.66 µM; and `Cc1nsc(N2Cc3ccccc3NC(=O)[C@@H]2C(C)C)n1` [Compound 324, (S)-3-isopropyl-4-(3-methyl-1,2,4-thiadiazol-5-yl)-1,3,4,5-tetrahydro-2H-benzo[e][1,4]diazepin-2-one], with 1.16 µM; and `CC(C)[C@H]1C(=O)Nc2ccccc2CN1C(=O)N(C)C` [Compound 325, (S)-3-isopropyl-N,N-dimethyl-2-oxo-1,2,3,5-tetrahydro-4H-benzo[e][1,4]diazepine-4-carboxamide], with 1.81 µM. Then `CC(=O)N1Cc2ccccc2NC(=O)[C@@H]1C(C)C` [Compound 326, (S)-4-acetyl-3-isopropyl-1,3,4,5-tetrahydro-2H-benzo[e][1,4]diazepin-2-one], with 4.38 µM; and `CC(C)[C@H]1C(=O)Nc2ccccc2CN1C(=O)c1cc[nH]c(=O)c1` [Compound 327, (S)-3-isopropyl-4-(2-oxo-1,2-dihydropyridine-4-carbonyl)-1,3,4,5-tetrahydro-2H-benzo[e][1,4]diazepin-2-one], with 1.50 µM. In the case of `CC(C)[C@H]1C(=O)Nc2ccccc2CN1C(=O)c1cnn(CCO)c1` [Compound 328, (S)-4-(1-(2-hydroxyethyl)-1H-pyrazole-4-carbonyl)-3-isopropyl-1,3,4,5-tetrahydro-2H-benzo[e][1,4]diazepin-2-one], the AC1.4 amounted to 2.56 µM. To `CC(C)[C@H]1C(=O)Nc2ccccc2CN1C(=O)c1ccc(C(N)=O)[nH]1` [Compound 329, (S)-5-(3-isopropyl-2-oxo-2,3,4,5-tetrahydro-1H-benzo[e][1,4]diazepine-4-carbonyl)-1H-pyrrole-2-carboxamide] belongs 0.20 µM; to `COCCn1cc(C(=O)N2Cc3ccccc3NC(=O)[C@@H]2C(C)C)cn1` [Compound 330, (S)-3-isopropyl-4-(1-(2-methoxyethyl)-1H-pyrazole-4-carbonyl)-1,3,4,5-tetrahydro-2H-benzo[e][1,4]diazepin-2-one], 1.71 µM. Then `CC(C)[C@H]1C(=O)Nc2ccccc2CN1C(=O)c1cn[nH]c1` [Compound 331, (S)-3-isopropyl-4-(1H-pyrazole-4-carbonyl)-1,3,4,5-tetrahydro-2H-benzo[e][1,4]diazepin-2-one], with 1.03 µM; and `CC(C)[C@H]1C(=O)Nc2ccccc2CN1C(=O)N1CC(O)C1` [Compound 332, (S)-4-(3-hydroxyazetidine-1-carbonyl)-3-isopropyl-1,3,4,5-tetrahydro-2H-benzo[e][1,4]diazepin-2-one], with 2.37 µM.

Take `CC(C)[C@H]1C(=O)Nc2ccccc2CN1S(=O)(=O)N(C)C` [Compound 333, (S)-3-isopropyl-N,N-dimethyl-2-oxo-1,2,3,5-tetrahydro-4H-benzo[e][1,4]diazepine-4-sulfonamide]: the AC1.4 is 2.44 µM. To `CC(C)[C@H]1C(=O)Nc2ccccc2CN1c1c(N)c(=O)c1=O` [Compound 334, (S)-3-amino-4-(3-isopropyl-2-oxo-1,2,3,5-tetrahydro-4H-benzo[e][1,4]diazepin-4-yl)cyclobut-3-ene-1,2-dione] belongs 0.65 µM; to `CNC(=O)N1Cc2ccccc2NC(=O)[C@@H]1C(C)C` [Compound 335, (S)-3-isopropyl-N-methyl-2-oxo-1,2,3,5-tetrahydro-4H-benzo[e][1,4]diazepine-4-carboxamide], 3.75 µM.

In the case of `CC[C@H](C)[C@H]1C(=O)Nc2cccc(F)c2CN1/C(N)=N\C#N` [Compound 336, (S,Z)-3-((S)-sec-butyl)-N′-cyano-6-fluoro-2-oxo-1,2,3,5-tetrahydro-4H-benzo[e][1,4]diazepine-4-carboximidamide], the AC1.4 is 0.12 µM. To `CC[C@H](C)[C@H]1C(=O)Nc2cccc(F)c2CN1C(=O)N1CC(O)C1` [Compound 337, (S)-3-((S)-sec-butyl)-6-fluoro-4-(3-hydroxyazetidine-1-carbonyl)-1,3,4,5-tetrahydro-2H-benzo[e][1,4]diazepin-2-one] belongs 0.72 µM; to `CC[C@H](C)[C@H]1C(=O)Nc2cccc(F)c2CN1C(=O)NC` [Compound 338, (S)-3-((S)-sec-butyl)-6-fluoro-N-methyl-2-oxo-1,2,3,5-tetrahydro-4H-benzo[e][1,4]diazepine-4-carboxamide], 0.69 µM. Take `CC[C@H](C)[C@H]1C(=O)Nc2cccc(F)c2CN1C(=O)CCO` [Compound 339, (S)-3-((S)-sec-butyl)-6-fluoro-4-(3-hydroxypropanoyl)-1,3,4,5-tetrahydro-2H-benzo[e][1,4]diazepin-2-one]: the AC1.4 stood at 2.79 µM. On to `CC[C@H](C)[C@H]1C(=O)Nc2cccc(F)c2CN1C(=O)N1CC[C@H](O)C1` [Compound 340, (S)-3-((S)-sec-butyl)-6-fluoro-4-((S)-3-hydroxypyrrolidine-1-carbonyl)-1,3,4,5-tetrahydro-2H-benzo[e][1,4]diazepin-2-one], for which the AC1.4 is 3.00 µM.

For the compound `CC[C@H](C)[C@H]1C(=O)Nc2ccc(F)cc2CN1C(=O)CO` [Compound 341, (S)-3-((S)-sec-butyl)-7-fluoro-4-(2-hydroxyacetyl)-1,3,4,5-tetrahydro-2H-benzo[e][1,4]diazepin-2-one], the AC1.4 worked out at 2.37 µM.

Turning to `CC[C@H](C)[C@H]1C(=O)Nc2ccc(F)cc2CN1C(=O)c1cn[nH]c1` [Compound 342, (S)-3-((S)-sec-butyl)-7-fluoro-4-(1H-pyrazole-4-carbonyl)-1,3,4,5-tetrahydro-2H-benzo[e][1,4]diazepin-2-one], the AC1.4 was 0.27 µM.
